The supplement of paper PMC10307832

What was measured:
Assay in all cases: relative viability (nuclei count vs DMSO), 5 days (fraction); higher = more cells survive
Carboplatin + Bortezomib = compound: C1CC(C1)(C(=O)O)C(=O)O.[NH2-].[NH2-].[Pt+2] [Carboplatin] + CC(C)C[C@H](NC(=O)[C@H](Cc1ccccc1)NC(=O)c1cnccn1)B(O)O [Bortezomib] (partner 0.002 µM)
Summary of the method: (§1)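 One day after seeding in 1536-well plates, lung cancer cell lines were dosed by pin tool. Dosing was either single-drug or a fixed anchor-drug dose plus five library-drug doses (not always all listed) in √10 steps. After 5 days, nuclei were stained in one fix-and-stain step and counted on 4× images, and relative viability is the nuclei count of treated wells over that of vehicle wells, given as the median of duplicate plates.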

Carboplatin + Tozasertib = compound: C1CC(C1)(C(=O)O)C(=O)O.[NH2-].[NH2-].[Pt+2] [Carboplatin] + Cc1cc(Nc2cc(N3CCN(C)CC3)nc(Sc3ccc(NC(=O)C4CC4)cc3)n2)n[nH]1 [Tozasertib] (partner 0.1 µM)
Summary of the method: as §1

GSK126 + Phenformin = compound: CC[C@H](C)N1C=C(C2=C(C=C(C=C21)C3=CN=C(C=C3)N4CCNCC4)C(=O)NCC5=C(C=C(NC5=O)C)C)C [GSK126] + N=C(N)NC(=N)NCCc1ccccc1 [Phenformin] (partner 250 µM)
Summary of the method: as §1

GSK126 + Decitabine = compound: CC[C@H](C)N1C=C(C2=C(C=C(C=C21)C3=CN=C(C=C3)N4CCNCC4)C(=O)NCC5=C(C=C(NC5=O)C)C)C [GSK126] + Nc1ncn([C@H]2C[C@H](O)[C@@H](CO)O2)c(=O)n1 [Decitabine] (partner 2 µM)
Summary of the method: as §1

Cell Line | relative viability (Carboplatin + Bortezomib; first compound 0.08 µM) | relative viability (Carboplatin + Bortezomib; first compound 0.253 µM) | relative viability (Carboplatin + Bortezomib; first compound 0.8 µM) | relative viability (Carboplatin + Bortezomib; first compound 2.53 µM) | relative viability (Carboplatin + Bortezomib; first compound 8 µM) | relative viability (Carboplatin + Tozasertib; first compound 0.08 µM) | relative viability (Carboplatin + Tozasertib; first compound 0.253 µM) | relative viability (Carboplatin + Tozasertib; first compound 0.8 µM) | relative viability (Carboplatin + Tozasertib; first compound 2.53 µM) | relative viability (Carboplatin + Tozasertib; first compound 8 µM) | relative viability (GSK126 + Phenformin; first compound 0.08 µM) | relative viability (GSK126 + Phenformin; first compound 0.253 µM) | relative viability (GSK126 + Phenformin; first compound 0.8 µM) | relative viability (GSK126 + Phenformin; first compound 2.53 µM) | relative viability (GSK126 + Phenformin; first compound 8 µM) | relative viability (GSK126 + Decitabine; first compound 0.08 µM) | relative viability (GSK126 + Decitabine; first compound 0.253 µM) | relative viability (GSK126 + Decitabine; first compound 0.8 µM) | relative viability (GSK126 + Decitabine; first compound 2.53 µM) | relative viability (GSK126 + Decitabine; first compound 8 µM)
HCC-78 | 0.561 | 0.502 | 0.383 | 0.497 | 0.508 | 0.413 | 0.335 | 0.431 | 0.483 | 0.465 | 0.816 | 0.773 | 0.604 | 0.646 | 0.692 | 0.756 | 0.659 | 0.683 | 0.839 | 0.74
HCC-366 | 1.08 | 1.05 | 1.09 | 0.957 | 0.685 | 0.13 | 0.139 | 0.111 | 0.1 | 0.0814 | 0.687 | 0.641 | 0.574 | 0.644 | 0.543 | 0.34 | 0.34 | 0.336 | 0.463 | 0.338
HCC-827 | 1.18 | 1.09 | 1.09 | 1.02 | 0.991 | 0.441 | 0.414 | 0.413 | 0.418 | 0.397 | 0.408 | 0.385 | 0.441 | 0.388 | 0.411 | 0.396 | 0.368 | 0.313 | 0.325 | 0.323
HOP-62 | 0.922 | 0.87 | 0.593 | 0.668 | 0.603 | 0.377 | 0.387 | 0.378 | 0.378 | 0.368 | 0.672 | 0.68 | 0.672 | 0.642 | 0.68 | 0.216 | 0.203 | 0.21 | 0.197 | 0.248
IA-LM | 0.804 | 0.836 | 0.633 | 0.792 | 0.535 |  |  |  |  |  |  |  |  |  |  |  |  |  |  | 
LC-2-ad | 1.09 | 1.1 | 1.11 | 0.985 | 0.831 | 0.482 | 0.433 | 0.496 | 0.372 | 0.374 | 0.627 | 0.634 | 0.583 | 0.56 | 0.642 | 0.779 | 0.866 | 0.717 | 0.876 | 0.78
LK-2 |  |  |  |  |  | 0.16 | 0.168 | 0.184 | 0.163 | 0.137 | 0.658 | 0.522 | 0.454 | 0.334 | 0.352 | 0.42 | 0.239 | 0.333 | 0.273 | 0.31
NCI-H358 |  |  |  |  |  | 0.113 | 0.101 | 0.107 | 0.108 | 0.114 | 0.465 | 0.306 | 0.379 | 0.402 | 0.299 | 0.231 | 0.2 | 0.207 | 0.229 | 0.218
NCI-H522 |  |  |  |  |  | 0.63 | 0.604 | 0.547 | 0.525 | 0.528 | 0.62 | 0.671 | 0.662 | 0.743 | 0.601 | 0.717 | 0.587 | 0.716 | 0.581 | 0.683
NCI-H1299 | 1.07 | 1.01 | 1.07 | 0.982 | 0.902 |  |  |  |  |  |  |  |  |  |  |  |  |  |  | 
NCI-H1395 |  |  |  |  |  | 0.721 | 0.733 | 0.65 | 0.646 | 0.566 | 0.487 | 0.446 | 0.43 | 0.506 | 0.474 | 0.718 | 0.671 | 0.713 | 0.736 | 0.652
NCI-H1563 | 1.02 | 0.886 | 0.937 | 0.876 | 0.77 |  |  |  |  |  | 0.665 | 0.676 | 0.654 | 0.596 | 0.646 |  |  |  |  | 
NCI-H1623 |  |  |  |  |  | 0.445 | 0.446 | 0.484 | 0.449 | 0.402 | 0.631 | 0.594 | 0.602 | 0.589 | 0.537 |  |  |  |  | 
NCI-H1648 |  |  |  |  |  | 0.708 | 0.421 | 0.319 |  | 0.456 |  |  |  |  |  | 0.561 | 0.562 | 0.554 | 0.633 | 0.492
NCI-H1703 | 0.494 | 0.503 | 0.347 | 0.425 | 0.34 |  |  |  |  |  |  |  |  |  |  |  |  |  |  | 
NCI-H1792 | 1.06 | 0.933 | 0.885 | 0.844 | 0.862 |  |  |  |  |  | 0.344 |  | 0.262 | 0.255 | 0.228 | 0.716 | 0.546 | 0.498 | 0.412 | 0.575
NCI-H1793 |  |  |  |  |  | 0.446 | 0.386 | 0.301 | 0.317 | 0.501 | 0.407 | 0.458 | 0.384 | 0.274 | 0.235 | 0.601 | 0.423 | 0.48 | 0.567 | 0.475
NCI-H1944 |  |  |  |  |  | 0.245 | 0.247 | 0.263 | 0.24 | 0.237 | 0.194 | 0.196 | 0.183 | 0.168 | 0.178 | 0.526 | 0.413 | 0.419 | 0.433 | 0.411
NCI-H2170 |  |  |  |  |  | 0.732 | 0.687 | 0.642 | 0.71 | 0.535 | 0.386 | 0.427 | 0.393 | 0.391 | 0.376 | 0.517 | 0.467 | 0.44 | 0.467 | 0.444
NCI-H2228 | 1.05 | 1.35 | 1.07 | 0.905 | 0.467 | 0.276 | 0.252 | 0.246 | 0.225 | 0.209 | 0.43 | 0.295 | 0.376 | 0.337 | 0.365 |  |  |  |  | 
NCI-H2342 |  |  |  |  |  | 0.555 | 0.529 | 0.502 | 0.406 | 0.547 | 0.942 | 0.566 | 0.558 | 0.525 | 0.759 | 0.75 | 0.7 | 0.7 | 0.628 | 0.812
SK-MES-1 |  |  |  |  |  | 0.812 | 0.938 | 0.925 | 0.922 | 0.843 | 0.743 | 0.673 | 0.635 | 0.526 | 0.535 | 0.41 | 0.463 | 0.418 | 0.391 | 0.431
SW 900 |  |  |  |  |  | 0.682 | 0.479 | 0.56 | 0.399 | 0.314 | 0.637 | 0.479 | 0.721 | 0.502 | 0.576 | 0.444 | 0.356 | 0.459 | 0.487 | 0.462
